What was measured:
[1] = tested on: KIAA0175; assay: KIAA0175 protein levels after exposure of cells to hydroxyurea (Western); settings: recombinant HA-fusion protein or endogenously expressed
[2] = tested on: KIAA0175 mRNA; assay: Northern analysis of KIAA0175 mRNA after anti-sense oligonucleotide transfection; format: cell-based, human; settings: HT1080 cells; for level of KIAA0175 mRNA expression: 100 nM oligonucleotide, Northern analysis; for KIAA0175 mRNA expression over time: 24 to 72 hours after oligonucleotide administration
Protocol: HT 1080 cells express endogenous KIAA0175. These cells were transfected with either the FITC (negative control) or AKT1 (positive control) oligonucleotides), 1182, or 545 oligonucleotides. Briefly, 100 nM of the respective anti-sense oligonucleotide was mixed with lipitoid 1 transfection reagent (Huang et al., Chemistry and Biology 5(6):346-354 (1998)) in a 1:3 volume to volume ratio in OPTI-MEM (GibcoBRL). The mixture was added to the HT1080 cells in complete medium (EMEM, 10% heat inactivated fetal bovine serum (FBS), 2 mM L-Glutamine, 100 U/ml Penicillin, and […] Streptomycin) and the cells were incubated at 37° C. for ^˜4-5 hours in the presence of the anti-sense oligonucleotides before changing to fresh complete medium. Total RNA was extracted at day 1 or 24, 48, or 72 hours following transfection and mRNA levels of KIAA0175 were detected by Northern analysis. 20 μg of total RNA were subjected to electrophoresis on a denaturing agarose gel. RNA was transferred to nitrocellulose and KIAA0175 mRNA was detected by probing with a ^32P-labeled, 0.7 kb KIAA0175 cDNA fragment. To control for equal loading of individual lanes, the blot was stripped of the KIAA0175 probe and re-probed with a ^32P-labeled G3PDH cDNA probe obtained from Clontech.

[3] = tested on: Normal Breast Epithelial Cell Line 184B5; assay: LDH cytotoxicity assay, normal breast epithelial cell line; format: cell-based; settings: for effect on cell death (LDH): 184B5 normal breast epithelial cell line
Protocol: (§1) The effect of KIAA0175 anti-sense molecules on cell sensitivity to chemotherapeutic drugs was tested on several cell lines using the lactate dehydrogenase (LDH) cytotoxicity assay essentially as follows:
(§2) Day 1: Cells were seeded in 4 separate 96 well plates, typically 5000 cells/well and incubated at 37° C. and 5% CO2.
(§3) Day 2: Cells were transfected with the KIA175-1182 and KIA175-545 anti-sense oligonucleotides (SEQ ID NOs:5 and 1, respectively) as well as the reverse complement controls, RC1182 and RC545 (SEQ ID NOs:6 and 2, respectively) essentially as described in Example 4, with and without drug. One plate (day 0) was left untransfected as a seeding control.
(§4) The transfection was carried out using a lipid vehicle for delivery as described in WO 01/16306, hereby incorporated in its entirety. Briefly, the transfection used agents known as “lipitoids” and “cholesteroids”, described, for example, in PCT publications WO 01/16306, WO 98/06437 and WO 99/08711, based on U.S. Ser. No. 60/023,867, 60/054,743, and 09/132,808, which are also hereby incorporated by reference. These lipid-cationic peptoid conjugates are shown in these references to be effective reagents for the delivery of plasmid DNA to cells in vitro. Any of the carriers described in the above-referenced applications are suitable for use in transfection of the oligonucleotides described herein.
(§5) Depending on the cell type, different lipid vehicles were used for different lengths of time for transfection. […] The transfection was carried out in complete medium and the final anti-sense oligonucleotide concentration was 300 nM per well. In the wells with drug, the drug was added to the culture at the beginning of the transfection.
(§6) Starting on Day 3: Cells were recovered, 1 plate/day and release of LDH into the supernatant was measured using a kit from Roche according to manufacturer's instructions (Roche Diagnostics, Basel, Switzerland) (data labeled as day 1, 2, 3).
(§7) For each sample, the data are expressed as a ratio of the level of LDH in wells containing cells transfected with anti-sense (AS) over the level of LDH in wells containing cells transfected with the reverse complement controls (RC) (ie:AS/RC). Thus, cells that become sensitized to drug will die and release LDH into the supernatant. An increase in the ratio signifies increased cell death and thus, higher levels of LDH in the media. A ratio higher than 1.5 signifies an effect of the anti-sense over the reverse complement control.

[4] = tested on: HCT116 cells; assay: Colony (Crystal Violet) viability assay, sensitization to γ-irradiation and hydroxyurea; format: cell-based; settings: 11 days of culture, compared to RC-treated cells
Protocol: γ-irradiation treatment was performed as follows: On day one, HCT116 cells were transfected with either the KIAA0175 anti-sense molecule No. 545 (545) or with the 545 reverse control molecule (RC) and plated onto tissue-culture plates. On day three, one plate each of 545 and RC transfected cells were treated with γ-irradiation (2, 4 or 8 Gy) and cultured an additional 2 hours. The γ-irradiation treated cells as well as untreated control HCT116 cells were trypsinized, counted and seeded in triplicate onto 6-well tissue culture plates to a density of 1000 cells per well. After 11 days of culture, the cells were assayed for viability by staining with Crystal Violet. Total numbers of cell colonies were then counted.
Hydroxyurea treatment was performed as follows: On day one, HCT116 cells were transfected with either the KIAA0175 anti-sense molecule No. 545 (545) or with the 545 reverse control molecule (RC) and plated onto tissue-culture plates. The following day (day two), one plate each of 545 and RC transfected cells were treated with hydroxyurea (1 mM final concentration) and cultured an additional 24 hours. On day three, the hydroxyurea treated cells as well as untreated control HCT116 cells were trypsinized, counted and seeded in triplicate onto 6-well tissue culture plates to a density of 1000 cells per well. […] Total numbers of cell colonies were then counted.

[5] = tested on: Breast Cancer Cell Line MDA-MB-231; assay: LDH cytotoxicity assay, breast cancer cell line; format: cell-based
Protocol: as §1, §2, §3, §4, §5, §6, §7

[6] = tested on: KIAA0175; assay: Western analysis of KIAA0175 protein level after anti-sense transfection, HT1080 cells; format: cell-based, human
Description: (§8) In separate experiments, either HT1080 or HCT116 cells expressing endogenous KIAA0175 and p53 were transfected with either FITC, KIAA0175 anti-sense oligonucleotides (i.e. 545 or 1182), or the corresponding reverse control oligonucleotides (RC or RC545). Total cell lysates were fractionated by SDS-polyacrylamide gel electrophoresis and transferred to nitrocellulose membranes. Specific proteins were detected by Western analysis using antibodies to either KIAA0175 (rabbit polyclonal antisera), p53, Erk2, or p21 antibodies as indicated. Antibodies against p53, p21 and Erk2 were obtained from Santa Cruz Biotechnology, Inc. (Santa Cruz, Calif.).

[7] = tested on: p21; assay: Western analysis of p21 after γ-irradiation of transfected HT1080 cells; format: cell-based, human; settings: 10 Gy γ-irradiation 24 hours after transfection
Protocol: (§9) HT1080 cells expressing endogenous KIAA0175 were transfected with the KIAA0175 anti-sense oligonucleotide (1182) and the corresponding reverse control oligonucleotide (RC1182). After culture for 24-hours, the transfected cells were treated with 10 Gy of γ-irradiation. At various times after irradiation, cells were harvested and lysates prepared and subjected to SDS-PAGE. p53, Erk2, and p21 proteins were detected by Western analysis.

[8] = tested on: p53; assay: Western analysis of p53 after γ-irradiation of transfected HT1080 cells; format: cell-based, human; settings: 10 Gy γ-irradiation 24 hours after transfection
Protocol: as §9

[9] = tested on: HT1080 cells; assay: Cell cycle arrest upon γ-irradiation in transfected HT1080 cells; format: cell-based, human
Protocol: Because both p53 and p21 are involved in the G1 to S phase cell cycle transition, the following experiments were performed in order to assess the effect of KIAA0175 anti-sense molecules on cell cycle regulation.
Table 1 discloses the percentage of HT1080 cells in each stage of the cell cycle at various times following exposure to γ-irradiation. By 24 hours, cells were arrested in both the G1 and G2 phases as evidenced by the elevated percentage of cells in G0/G1 and G2/M phases as compared to the diminished percentage of cells in the S phase.
Table 2 discloses the effect of KIAA0175 anti-sense molecules on γ-irradiation induced cell-cycle arrest. In cells transfected with anti-sense molecules, there was a reduction in the accumulation of cells in the G1 phase and a minimized reduction in the number of cells in the S phase as compared to cells transfected with a “reverse-control” anti-sense molecule as control.

[10] = tested on: p53; assay: Western analysis of p53 protein level after anti-sense transfection, HT1080 cells; format: cell-based, human
Description: as §8

[11] = 184B5, Day 0 (untransfected seeding control plate), 300 nM oligonucleotide
[12] = 184B5, Day 1, 300 nM oligonucleotide, ratio higher than 1.5 signifies an effect
[13] = 184B5, Day 2, 300 nM oligonucleotide, ratio higher than 1.5 signifies an effect
[14] = 184B5, Day 3, 300 nM oligonucleotide, ratio higher than 1.5 signifies an effect
[15] = MDA-MB-231, Day 0 (untransfected seeding control plate), 300 nM oligonucleotide
[16] = MDA-MB-231, Day 1, 300 nM oligonucleotide, ratio higher than 1.5 signifies an effect
[17] = MDA-MB-231, Day 2, 300 nM oligonucleotide, ratio higher than 1.5 signifies an effect
[18] = MDA-MB-231, Day 3, 300 nM oligonucleotide, ratio higher than 1.5 signifies an effect
[19] = MDA-MB-231 metastatic breast cancer cells

## NC(=O)NO [hydroxyurea]
[1]
  KIAA0175 protein levels: caused an increase in KIAA0175 protein levels

## AKT: positive control oligonucleotide 5′-CCATAGTGAGGTTGCATCTGGTGCC-3′ (listed as DNA, chemistry not given here) [reference compound]
[2]
  level of KIAA0175 mRNA expression: ineffective in reducing KIAA0175 mRNA expression

## FITC: negative control oligonucleotide 5′-TCTGCTGCTGTCGACAACGAGTGTC-3′ (FITC label, position not given here) [reference compound]
[2]
  level of KIAA0175 mRNA expression: ineffective in reducing KIAA0175 mRNA expression
  KIAA0175 mRNA expression over time: no effect

## KIA175-545: KIAA0175 anti-sense oligonucleotide 5′-GAGGTCCCTGTGAGCATAGCCCTGG-3′ (listed as DNA, chemistry not given here)
[3]; [11]
  LDH ratio AS/RC: 0.0000
[3]; [12]
  LDH ratio AS/RC: 1.1152
[3]; [13]
  LDH ratio AS/RC: 1.1258
[3]; [14]
  LDH ratio AS/RC: 1.2934
[3]
  effect on cell death (LDH): neither KIA175-1182 nor KIA175-545 has an effect
[4]; hydroxyurea 1 mM 24 hours
  sensitivity to hydroxyurea (number of viable colonies): increased the sensitivity of HCT116 cells to hydroxyurea
[4]; γ-irradiation 2, 4 or 8 Gy
  sensitivity to γ-irradiation (number of viable colonies): increased the sensitivity of HCT116 cells to γ-irradiation
[2]
  level of KIAA0175 mRNA expression: effective in reducing the level of KIAA0175 mRNA expression
  KIAA0175 mRNA expression over time: increased gradually
[5]; [15]
  LDH ratio AS/RC: 0.84
[5]; [16]
  LDH ratio AS/RC: 1.05
[5]; [17]
  LDH ratio AS/RC: 1.37
[5]; [18]
  LDH ratio AS/RC: 1.62
[5]; [19]
  sensitization to the effects of Campthesin (CPT): sensitizes
  sensitization to the effects of Cisplatin: sensitizes
  sensitization to the effects of Doxorubicin (Doxo): did not appear to sensitize

## KIA175-736: KIAA0175 anti-sense oligonucleotide 5′-TGCCCATGCTCCAAACATCTGCCTC-3′ (listed as DNA, chemistry not given here)
[2]
  level of KIAA0175 mRNA expression: effective in reducing the level of KIAA0175 mRNA expression

## KIA175-1182: KIAA0175 anti-sense oligonucleotide 5′-GGGTAGCACTGGCTTGTCCACAGGA-3′ (listed as DNA, chemistry not given here)
[6]
  time of maximal anti-sense activity, KIAA0175 protein: 48 h
[3]; [11]
  LDH ratio AS/RC: 0.0000
[3]; [12]
  LDH ratio AS/RC: 1.0223
[3]; [13]
  LDH ratio AS/RC: 0.9065
[3]; [14]
  LDH ratio AS/RC: 1.0663
[3]
  effect on cell death (LDH): neither KIA175-1182 nor KIA175-545 has an effect
[7]
  p21 protein levels after γ-irradiation: reduction of p21 protein levels
[8]
  γ-irradiation induced increase in p53 protein level: blocked the γ-irradiation induced increase in p53 protein level
[9]; + γ-irradiation
  percentage of cells in G0-G1: 39.3%
  percentage of cells in G2-M: 42.17%
  percentage of cells in S: 18.6%
[9]; − γ-irradiation
  percentage of cells in G0-G1: 47.4%
  percentage of cells in G2-M: 26.8%
  percentage of cells in S: 25.7%
[2]
  level of KIAA0175 mRNA expression: effective in reducing the level of KIAA0175 mRNA expression
  KIAA0175 mRNA expression over time: increased gradually
[5]; [15]
  LDH ratio AS/RC: 0.76
[5]; [16]
  LDH ratio AS/RC: 2.04
[5]; [17]
  LDH ratio AS/RC: 1.67
[5]; [18]
  LDH ratio AS/RC: 1.52
[10]
  time of maximal anti-sense activity, p53 protein: 48 h

## RC736: reverse control oligonucleotide 5′-CTCCGTCTACAAACCTCGTACCCGT-3′ (listed as DNA, chemistry not given here) [reference compound]
[2]
  level of KIAA0175 mRNA expression: ineffective in reducing KIAA0175 mRNA expression

## RC1182: reverse control oligonucleotide 5′-AGGACACCTGTTCGGTCACGATGGG-3′ (listed as DNA, chemistry not given here) [reference compound]
[8]
  γ-irradiation induced increase in p53 protein level: increase in p53 protein level observed
[9]; + γ-irradiation
  percentage of cells in G0-G1: 52.5%
  percentage of cells in G2-M: 32.6%
  percentage of cells in S: 14.9%
[9]; − γ-irradiation
  percentage of cells in G0-G1: 47.6%
  percentage of cells in G2-M: 19.4%
  percentage of cells in S: 33%
[2]
  level of KIAA0175 mRNA expression: ineffective in reducing KIAA0175 mRNA expression

Reference: patent US6974867B2, “Compositions and methods for treating neoplastic disease using chemotherapy and radiation sensitizers” (Chiron Corporation, priority 2000, dated 2005)
